Reference: US20140315956A1, “SMALL MOLECULE INHIBITORS OF IL-6 AND USES THEREOF” (NATIONWIDE CHILDREN'S HOSPITAL, priority 2011, published 2014)
“Also recorded” adds a separate entry of the source. Like-named read-outs stand apart in the source and are kept apart here.

Experiments:
[1] = biological target: T1, gp130 extracellular domain (recombinant gp130-Fc-HA) (Homo sapiens, UniProt P40189); experiment: Surface plasmon resonance direct binding to gp130-Fc-HA; details: for binding in SPR direct binding assay, comparison in words: relative to MDL-A or to other analogues
T1 construct: purified gp130 (amino residue 18-615); made in house; host or cells: HEK293T (plasmid from Dr. John J. Krolewski)
T1 sequence (P40189 18-615): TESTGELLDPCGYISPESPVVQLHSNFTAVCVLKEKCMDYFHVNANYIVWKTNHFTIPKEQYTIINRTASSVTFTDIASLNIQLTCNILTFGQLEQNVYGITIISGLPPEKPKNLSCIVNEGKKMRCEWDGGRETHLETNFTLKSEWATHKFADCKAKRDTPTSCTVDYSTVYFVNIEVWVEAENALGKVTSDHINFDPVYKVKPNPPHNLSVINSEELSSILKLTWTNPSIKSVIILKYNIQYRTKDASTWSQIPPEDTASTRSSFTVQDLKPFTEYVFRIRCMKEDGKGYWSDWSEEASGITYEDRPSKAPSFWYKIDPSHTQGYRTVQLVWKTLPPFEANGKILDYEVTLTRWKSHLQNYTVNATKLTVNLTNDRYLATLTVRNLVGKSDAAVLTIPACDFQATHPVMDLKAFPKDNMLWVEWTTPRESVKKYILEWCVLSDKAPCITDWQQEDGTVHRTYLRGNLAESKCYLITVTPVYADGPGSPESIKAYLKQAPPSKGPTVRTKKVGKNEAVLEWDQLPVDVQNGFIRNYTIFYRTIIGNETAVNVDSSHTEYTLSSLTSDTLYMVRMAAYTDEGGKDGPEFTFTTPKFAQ
Method: HEK293T cells were grown in media containing DMEM+10% fetal bovine serum (FBS),100 U/ml penicillin and […] streptomycin (Invitrogen) in a humidified 37° C. incubator with 5% CO2. Plasmid DNA expressing gp130-Fc-HA was transfected in the form of calcium phosphate precipitate into HEK293T cells (ten T75 flasks containing 5.5×10^6 cells). The supernatant was harvested sixty hours post transfection and centrifuged to remove residual cells and adjusted to pH 8.0. The supernatant was passed through a 0.45 μm filter. The gp130-Fc-HA tagged protein was immunoprecipitated using anti-HA affinity matrix (Roche Applied Bioscience).A one milliliter column containing anti-HA affinity matrix was equilibrated with 20 mM Tris-HCl, 0.1M NaCl, 0.1 mM EDTA (pH 8.0). The supernatant was applied to the equilibrated column and the column was washed successively with 20 mM Tris-HCl, 1M NaCl (pH 8.0). Bound protein was eluted with HA peptide dissolved in equilibration buffer. The column was regenerated with 0.1 M glycine (pH 2.0). Fractions containing recombinant protein were pooled, dialyzed against HBS buffer [10 mM HEPES (pH 7.4), 0.15 M NaCl, 3 mM EDTA, 0.005% P20] and concentrated by Centricon 30 (Amicon) centrifugation. Protein concentration was determined using Bradford protein assay reagent (Pierce), with bovine serum albumin (BSA, Fisher Scientific) as a standard. The purified recombinant gp130 protein was analyzed using SDS-PAGE and immunoblotting.
Surface plasmon resonance (SPR) analysis was performed using BIAcore T100. Recombinant gp130-Fc-HA was cross-linked to the flow cell on a carboxymethylated dextran matrix of a CM5 sensor chip (BIAcore) using standard amino group coupling methods according to the manufacturer's instructions. Sodium acetate (10 mM, pH 3.5) gave the best immobilization of the protein on the chip surface and unreactive groups on the chip were blocked by ethanolamine according to the manufacturer's instructions. Approximately 5000 resonance units (RU) of gp130-Fc-HA were cross-linked to the flow cell. HBS+1% DMSO were used in all buffers (running and sample) to avoid background response due to differences in buffer refractive index. For the equilibrium analysis, various concentrations of MDL-A, 1, and 2 were injected for a period of 2 min at a flow rate of 30 μl/min, in series, into flow cells containing covalently bound gp130-fc-HA and reference flow cell. Bound ligand (MDL-A, 1, and 2) in each assay was removed by passing 10 mM glycine (pH 2.2) over the chip surface. Biacore T100 Evaluation 2.0 was used for all interaction analyses. The steady-state equilibrium response (RUeq) was determined from the reference-subtracted sensogram. The kinetics parameter was calculated according to a 1:1 Langmuir binding model (A+B ? AB) by direct fitting of ligand binding sensor grams at multiple concentrations. The dissociation equilibrium constant is defined as dissociation constant (KD)=dissociation rate constant (kd)/association rate constant (ka). KD was determined by scattered analysis of equilibrium-state data obtained at different concentrations of analogues.
To examine the direct binding and calculation of equilibrium dissociation constant (KD) of MDL-A analogues with gp130 extracellular domain, surface plasmon resonance analysis was done. Protein was covalently cross linked to the dextran matrix of the biosensor chip CM5. Successively, various concentrations of MDL-A and MDL-A analogues were injected into the flow cells containing bound protein and no protein (reference). Interactions were monitored in real time and KD values were calculated by reference-substrated sensogram.
To examine the direct binding and calculate the equilibrium dissociation constant (KD) of MDL-A analogues with gp130 extracellular domain, surface plasmon resonance analysis was performed. Surface plasmon resonance (SPR) analysis was performed using a BIAcore T100. […]

[2] = test system: nuclear translocation of STAT3 in MCF-7 cells; experiment: Immunofluorescence of IL6-activated STAT3 nuclear translocation in MCF-7 cells; type: cell-based
[3] = test system: Stat3 phosphorylation (p-Tyr705) induced by IL-6 in LNCaP prostate cancer cells; experiment: IL-6 induced Stat3 phosphorylation in LNCaP cells, Western blot; type: cell-based; details: for inhibition of Stat3 phosphorylation induced by IL6: Western blot; for relative potency of inhibition of Stat3 phosphorylation: comparison in words
Method: LNCaP prostate cancer cells were acquired from American Type Culture Collection. Cells were maintained in RPMI 1640 medium, 1× with 4.5 g/L L-glutamine, supplemented with 10% FBS, 100 U/ml penicillin and […] streptomycin (Invitrogen), in a humidified atmosphere of 5% CO2 at 37° C.
LNCaP prostate cancer cells were seeded in T75 flasks, grown to 50% confluence and serum-starved the following night. The cells were left untreated or were treated with MDL-A (100-400 μM), 1, 2 (5-40 μM) or DMSO in the absence of FBS. After 4 hours, the cells were stimulated with 12.5 ng/ml IL-6 (Cell Signaling Technology). The cells were then harvested at 30 minutes and washed with PBS and lysed in cold M-PER lysis buffer (Pierce) containing protease inhibitors (Sigma) and phosphatase inhibitors (Roche). Lysates were centrifuged at 14,000 rpm for 15 minutes at 4° C. and supernatants were collected and stored at −20° C. until further use.
Cell lysates were assayed for their protein concentrations using the Bradford protein assay reagent (Pierce), using BSA (Fisher Scientific) as the standard. Lysate samples were adjusted for the same protein concentration, approximately 5 μg of sample protein was loaded into each of the appropriate lanes. Protein samples were separated by SDS-PAGE and electrotransferred to PVDF membranes. The membranes were washed and blocked with 5% BSA in TBST (60 mM Tris-base, 120 mM NaCl, 0.1% Tween-20) for at least one hour and incubated with anti-phospho-STAT3 (p-Tyr705) antibody, anti-STAT3 antibody or anti-GAPDH antibody (all from Cell Signaling Technology) in 5% BSA in TBST overnight at 4° C. Blots were then washed three times in TBST and incubated with a horseradish peroxidase-conjugated goat anti-rabbit IgG secondary antibody (Cell Signaling Technology) in 5% BSA in TBST for 1 hour at room temperature. The bound antibody was detected using Enhanced Chemiluminescence detection reagents (Pierce) according to the manufacturer's instructions and chemiluminescence visualized using ECL Hyperfilm (Amersham).

[4] = test system: Stat3 phosphorylation (p-Tyr705) induced by IL-6 in LNCaP prostate cancer cells; experiment: as above; type: cell-based; details: IL-6 12.5 ng/ml 30 min
[5] = test system: SUM-159 breast cancer cells tumor xenograft; experiment: Tumor xenograft model with SUM-159 breast cancer cells; type: in vivo, human; details: 100 mg/kg, SUM-159 xenograft, vehicle DMSO
Description: The effect of a representative compound, MDL-16, on tumor progression is compared to a group treated with vehicle (DMSO).

[6] = test system: LIF mediated STAT3 phosphorylation; experiment: LIF induced phosphorylation of STAT3 (FIG. 34); type: cell-based
[7] = test system: IL6 mediated STAT3 phosphorylation; experiment: IL6 induced phosphorylation of STAT3 (FIG. 34); type: cell-based
[8] = gp130-Fc-HA on CM5 chip, BIAcore T100, read-out: SPR data (Kd μM)
[9] = gp130 extracellular domain, Biacore evaluation software 2.0, read-out: KD

| Structure (SMILES) | Kd [1, 8] | Kd [1, 9] | binding in SPR direct binding assay, comparison in words [1] | nuclear translocation of STAT3 activated by IL6 [2] | inhibition of Stat3 phosphorylation induced by IL6 ([3]; IL-6 12.5 ng/ml 30 min) | inhibition of Stat3 phosphorylation induced by IL-6 at 40 µM [4] | relative potency of inhibition of Stat3 phosphorylation [3] | effect on tumor progression compared to vehicle [5] | Kd ([1]; values in running text and figure legend, read-out: dissociation constant (KD)) | LIF mediated STAT3 phosphorylation [6] | inhibition of Stat3 phosphorylation induced by IL-6 at 40 µM ([3]; 40 μM compound 4 hours, IL-6 12.5 ng/ml 30 min) | IL6 mediated STAT3 phosphorylation [7] |
| --- | --- | --- | --- | --- | --- | --- | --- | --- | --- | --- | --- | --- |
| CCCCc1ccc(O)c(CN2c3ccccc3[C@]3(O)C[C@H](COC(=O)c4ccccc4)O[C@H]23)c1O (stereo in doubt) [MDL-5, ((2S,3AR)-8-(3-butyl-2,6-Dihydroxybenzyl)-3A-Hydroxy-3,3A,8,8A-Tetrahydro-2H-Furo[2,3-B]Indol-2-Yl)Methyl Benzoate] | 37 µM | 37 µM | stronger binding than analogues without extra attachments; also recorded: better binding than MDL-A; also recorded: better activity than MDL-A | inhibits the nuclear translocation of STAT3 | dose dependent inhibition |  |  |  |  |  |  |  |
| CCCCn1nccc1C(=O)CN1c2ccccc2[C@]2(O)CCO[C@H]12 [MDL-3] |  |  | better binding than MDL-A |  |  |  |  |  |  |  |  |  |
| CCCCc1ccc(O)c(Cn2cc(CCO)c3ccccc32)c1O [MDL-6] | 49.5 µM | 49.5 µM | better binding than MDL-A; also recorded: better activity than MDL-A |  |  | completely inhibit | slightly more potent than MDL-5 |  |  |  |  |  |
| CCCCc1ccc(O)c(Cn2cc(CCO)c3cc(C(=O)OC)ccc32)c1O [MDL-7] | 40.8 µM | 40.8 µM | better binding than MDL-A; also recorded: better activity than MDL-A |  |  | completely inhibit | slightly more potent than MDL-5 |  |  |  |  |  |
| CCCCc1ccc(OC)c(Cn2cc(CCO)c3ccccc32)c1OC [MDL-8] | 41.4 µM | 41.4 µM | better binding than MDL-A; also recorded: better activity than MDL-A |  |  |  |  |  |  |  |  |  |
| CCCCc1ccc(O)c(Cn2cc(C[C@H](O)COC(=O)c3ccccc3)c3ccccc32)c1O [MDL-16, (S)-3-(1-(3-Butyl-2,6-Dihydroxybenzyl)-1H-Indol-3Yl)-2-Hydroxypropyl Benzoate] | 29 µM |  | stronger binding than analogues without extra attachments; also recorded: strongest binding affinity; also recorded: better binding than MDL-A; also recorded: better activity than MDL-A | inhibits the nuclear translocation of STAT3 | dose dependent inhibition |  | slightly more potent than MDL-5 | significant effect on tumor progress compared to vehicle | 29.7 µM | not LIF mediated STAT3 phosphorylation | completely inhibits | inhibits IL6 mediated STAT3 phosphorylation |
| CCCCc1ccc(OC)c(CN2c3ccccc3[C@]3(O)C[C@H](COC(=O)c4ccccc4)O[C@H]23)c1OC [MDL-17] | 42.5 µM |  | stronger binding than analogues without extra attachments; also recorded: better binding than MDL-A; also recorded: better activity than MDL-A |  |  |  |  |  |  |  |  |  |
